Two molecules from patent publication US20260107938A1, “HERBICIDE/SAFENER COMBINATION BASED ON SAFENERS FROM THE CLASS OF SUBSTITUTED [(1,5- DIPHENYL-1H-1,2,4-TRIAZOL-3-YL)OXY]ACETIC ACIDS AND THEIR SALTS” (BAYER AKTIENGESELLSCHAFT, priority 2022, published 2026) can be followed below.

The test relates to summer wheat (TRZAS; cv. Triso). In words: Greenhouse post-emergence trial: reduction in herbicide damage to summer wheat by safener. It counts as in vivo. Further details: key to Reduction in damage by safener (difference): difference in visual damage, % points (0-100% scale vs untreated). As to conditions: 21 days after application. How it is done:
Effect of selective herbicide/safener combinations of the invention using the example of reduction in damage to summer wheat (TRZAS):
The seeds of the crop plants to be treated were laid out in soil in plastic pots (diameter ˜8 cm), covered with soil and grown in a greenhouse under good conditions for germination and growth. The trial plants were treated at the early leaf stage (BBCH12).
For this purpose, the herbicides and safeners used were formulated as wettable powders (WP), mixed in accordance with the dose specified in each case, and sprayed onto the above-ground parts of the plants as an aqueous suspension at a water application rate corresponding to 300 l/ha with addition of wetting agent (Mero, 1.5 l/ha).
The dose of the respective herbicides was chosen here such that it causes visually apparent damage (min. 30%, max. 70%) compared to untreated crop plants at the evaluation time on a control group of crop plants without safener treatment that were included in the same trial. After application, the plants were cultivated under good growth conditions in a greenhouse. 21 days after application, the herbicide damage was assessed visually. The damage was assessed visually on a scale of 0-100% by comparison with untreated control plants, and averaged over 2 repeats per treatment.
0%=no noticeable effect compared to the untreated plant 20%=the treated plant population has 20% damage compared to the untreated control population (e.g. growth height, leaf damage, etc.)
100%=treated plants completely damaged/killed.
The safeners were each used at an application rate of 80 g/ha.

Where [1] appears, read: herbicide B19 100 g a.i./ha + safener 80 g/ha.
Setting [2] is: herbicide B110 50 g a.i./ha + safener 80 g/ha.
The mark [3] stands for this setting: herbicide B122 50 g a.i./ha + safener 80 g/ha.
Where [4] appears, read: herbicide B123 50 g a.i./ha + safener 80 g/ha.

For `COC(=O)COc1nc(-c2ccc(Cl)cc2F)n(-c2ccc(Cl)cc2F)n1` [Compound A1, methyl {[1,5-bis(4-chloro-2-fluorophenyl)-1H-1,2,4-triazol-3-yl]oxy}acetate], the “Damage to the plant on application of herbicide + safener” value by setting is: under setting [1], 0%; under setting [2], 0%; under setting [3], 0%; under setting [4], 10%. Further, the “Reduction in damage by safener (difference)” value (“Reduction … (difference)” for short) under setting [1] worked out at 30, the “Reduction … (difference)” value under setting [2] amounted to 70, the “Reduction … (difference)” value under setting [3] amounted to 55 and the “Reduction … (difference)” value under setting [4] amounted to 60. Besides, the “Reduction in damage by safener (in %)” value is, setting by setting: under setting [1], 100%; under setting [2], 100%; under setting [3], 100%; under setting [4], 86%.

Regarding `COC(=O)COc1nc(-c2ccc(F)cc2F)n(-c2ccc(Cl)cc2F)n1` [Compound A5, methyl {[1-(4-chloro-2-fluorophenyl)-5-(2,4-difluorophenyl)-1H-1,2,4-triazol-3-yl]oxy}acetate], the “Damage to the plant on application of herbicide + safener” value by setting is: under setting [1], 0%; under setting [2], 0%; under setting [3], 0%; under setting [4], 25%. In addition, the “Reduction … (difference)” value is 30 under setting [1], 70 under setting [2], 55 under setting [3] and 45 under setting [4]. In addition, the “Reduction in damage by safener (in %)” value is recorded as 100% under setting [1], 100% under setting [2], 100% under setting [3] and 64% under setting [4].
